Values of other authors in patent publication US8648072B2, “Cannabinoid receptor antagonists/inverse agonists useful for treating metabolic disorders, including obesity and diabetes” (Jenrin Discovery, Inc., priority 2009, dated 2014).

Test system: patients with type 2 diabetes
Details: after six months of treatment; baseline value of 7.9; placebo group 0.3%

SMILES: Cc1c(C(=O)NN2CCCCC2)nn(-c2ccc(Cl)cc2Cl)c1-c1ccc(Cl)cc1 [rimonabant]
- HbA1c levels lowered: 0.8%
